Assay results reported in US12351557B2, “Chemical compound manufacture, new salt form, and therapeutic uses thereof” (Eustralis Pharmaceuticals Limited (Trading As Pressura …, priority 2018, dated 2025).
Counter-ions that a name gives are not always drawn. Like-named read-outs stand apart in the source and are kept apart here.

Legend:
pKa estimate = type: physicochemical; conditions: free base
[1] = Qualitative solubility of free base in 50 solvents; type: physicochemical; conditions: for Qualitative solubility in solvents: organic solvents, 50 solvents studied
Excerpt: The solubility of compound of Formula (1) was first qualitatively studied in 50 solvents. In all SAS experiments, the amorphous free base of compound of formula (1) was obtained after evaporation of the experiments.

[2] = Stability study, samples stored at 40° C./75% RH; type: physicochemical
[3] = Hydroscopicity (water sorption at 90% RH); type: physicochemical
[4] = pH of solution in purified water; type: physicochemical; conditions: 5 mg/mL solution in purified water
Experimental: pH: 2 to 3 (5 mg/mL solution in purified water).

[5] = Polymorphism risk assessment; conditions: 2HCl salt physicochemical summary
Experimental: Decomposition/melting range temperature and presence of solvate molecules are estimated from thermal analyses. The polymorphism risk was assessed base on the number of identified forms during this work and reproducibility of the salt screen target patterns.

[6] = Solubility of 2HCl salt in solvents; type: physicochemical
Experimental: A summary of the physicochemical characteristics of 2HCl salt of Compound of Formula (1) is provided below.
Solubility: very soluble in water ([…]0.2 mg/μL), freely soluble in ethanol (0.1-0.2 mg/μL), sparingly soluble in 1-propanol and acetonitrile (0.01-0.03 mg/μL).

Q: What does the source list for `Cc1ccccc1-c1cc(N2CCN(C)CC2)ncc1C(=O)N(C)Cc1cc(C(F)(F)F)cc(C(F)(F)F)c1` [Compound of Formula (1), N-{[3,5-Bis(trifluoromethyl)phenyl]methyl}-N-methyl-4-(2-methylphenyl)-6-(4-methyl-1-piperazinyl)-3-pyridinecarboxamide]?
A: pKa (pKa estimate; read-out: pKa 1 (estimate)): 7.54; pKa (pKa estimate; read-out: pKa 2 (estimate)): 4.05; Qualitative solubility in solvents [1]: very soluble or soluble in many solvents; Qualitative solubility in solvents ([1]; listed as free base): very soluble or soluble in almost all solvents; Behaviour of water as solvent ([1]; water): antisolvent

Q: What does the source list for `Cc1ccccc1-c1cc(N2CCN(C)CC2)ncc1C(=O)N(C)Cc1cc(C(F)(F)F)cc(C(F)(F)F)c1` [Compound of formula (1) 2HCl salt]?
A: Appearance (white to yellow powder) ([2]; 0 months): Complies; Assay (% "as is") ([2]; 0 months): 95.0%; Assay (% anhydrous) ([2]; 0 months): 100.0%; Related Substances: Any other unknown ([2]; 0 months): RRT 0.89: 0.007%; Related Substances: Intermediate 3 ([2]; 0 months): Int 3: 0.69%; Related Substances: RRT - 0.89 ([2]; 0 months): RRT 0.85: 0.34%; Related Substances: RRT - 1.27 ([2]; 0 months): RRT 1.27: 0.27%; Related Substances: Total Impurities ([2]; 0 months): 1.37%; Water Content ([2]; 0 months): 5.0%; pH ([2]; 0 months): 2.31; Appearance (white to yellow powder) ([2]; 1 month): Complies; Assay (% "as is") ([2]; 1 month): 94.8%; Assay (% anhydrous) ([2]; 1 month): 99.8%; Related Substances: Any other unknown ([2]; 1 month): RRT 0.90: 0.07%; Related Substances: Intermediate 3 ([2]; 1 month): Int 3: 0.71%; Related Substances: RRT - 0.89 ([2]; 1 month): RRT 0.89: 0.36%; Related Substances: RRT - 1.27 ([2]; 1 month): RRT 1.28: 0.27%; Related Substances: Total Impurities ([2]; 1 month): 1.41%; Water Content ([2]; 1 month): 4.99%; pH ([2]; 1 month): 2.39; Appearance (white to yellow powder) ([2]; 3 months): Complies; Assay (% "as is") ([2]; 3 months): 94.5%; Assay (% anhydrous) ([2]; 3 months): 100.1%; Related Substances: Any other unknown ([2]; 3 months): RRT 0.91: 0.05%; Related Substances: Intermediate 3 ([2]; 3 months): Int 3: 0.71%; Related Substances: RRT - 0.89 ([2]; 3 months): RRT 0.90: 0.36%; Related Substances: RRT - 1.27 ([2]; 3 months): RRT 1.27: 0.26; Related Substances: Total Impurities ([2]; 3 months): 1.38%; Water Content ([2]; 3 months): 5.58%; pH ([2]; 3 months): 2.33; Appearance (white to yellow powder) ([2]; 6 months): Complies; Assay (% "as is") ([2]; 6 months): 94.6%; Assay (% anhydrous) ([2]; 6 months): 99.7%; Related Substances: Any other unknown ([2]; 6 months): RRT 0.91: 0.06%; Related Substances: Intermediate 3 ([2]; 6 months): Int 3: 0.71%; Related Substances: RRT - 0.89 ([2]; 6 months): RRT 0.90: 0.35%; Related Substances: RRT - 1.27 ([2]; 6 months): RRT 1.27: 0.27%; Related Substances: Total Impurities ([2]; 6 months): 1.39%; Water Content ([2]; 6 months): 5.17%; pH ([2]; 6 months): 2.47; Appearance (white to yellow powder) ([2]; Initial Release): Complies; Assay (% "as is") ([2]; Initial Release): 98.3%; Assay (% anhydrous) ([2]; Initial Release): 99.3%; Related Substances: Intermediate 3 ([2]; Initial Release): Int 3: 0.71%; Related Substances: RRT - 0.89 ([2]; Initial Release): RRT 0.87: 0.35%; Related Substances: RRT - 1.27 ([2]; Initial Release): RRT 1.27: 0.28%; Related Substances: Total Impurities ([2]; Initial Release): 1.34%; Water Content ([2]; Initial Release): 1.0%; pH ([2]; Initial Release): 2.31; Hydroscopicity (Water sorption at 90% RH) [3]: 3.2%; pH [4]: 2 to 3; Polymorphism [5]: Not detectable; Solubility in 1-propanol ([6]; 1-propanol, sparingly soluble): 10000 to 30000 µg/mL; Solubility in acetonitrile ([6]; acetonitrile, sparingly soluble): 10000 to 30000 µg/mL; Solubility in ethanol ([6]; ethanol, freely soluble): 100000 to 200000 µg/mL
